Assay results published in US4910214A, “Optical isomer of an imidazole derivative medetomidine as an alpha-2-receptor agonist” (Farmos Yhtyma Oy, priority 1987, dated 1990).
Where two headings read alike, the source gives them in different places.

Columns and labels:
rat [1] = experiment: Elevated t-maze test, exploration of open and enclosed arms (anxiolytic effects); assay type: in vivo; conditions: for Mean number of entries, closed / Mean number of entries, open / Mean number of entries, total / open/total entries: 5 minutes, n = 6
Protocol: The anxiolytic effects of the compounds were studied using a method described by Handley and Mithoni: Naunyn-Schmiedeb, Arch. Pharmacol. 327, 1-5, 1984. In this test the manner of exploration of open and enclosed arms in an elevated t-maze by a rat is examined. It has been shown that anxiolytic drugs increase the relative exploration of open arms. A rat is placed in the center of the t-maze and the number of open and enclosed entries is recorded during 5 minutes.

[2] = target: T1, presynaptic α2 -adrenoceptors (Mus musculus, UniProt Q01338); experiment: α2-agonism in vitro, isolated electrically stimulated mouse vas deferens; assay type: cell-based; conditions: for EC50: negative log of molar concentration producing 50 percent of maximal inhibition of electrically induced contractions, read-out: α2 -agonism in vitro (mouse vas deferens). pD2 (converted)
T1 construct: isolated, electrically stimulated mouse was deferens preparation; from tissue; host or cells: mouse vas deferens
T1 sequence (Q01338 1-465): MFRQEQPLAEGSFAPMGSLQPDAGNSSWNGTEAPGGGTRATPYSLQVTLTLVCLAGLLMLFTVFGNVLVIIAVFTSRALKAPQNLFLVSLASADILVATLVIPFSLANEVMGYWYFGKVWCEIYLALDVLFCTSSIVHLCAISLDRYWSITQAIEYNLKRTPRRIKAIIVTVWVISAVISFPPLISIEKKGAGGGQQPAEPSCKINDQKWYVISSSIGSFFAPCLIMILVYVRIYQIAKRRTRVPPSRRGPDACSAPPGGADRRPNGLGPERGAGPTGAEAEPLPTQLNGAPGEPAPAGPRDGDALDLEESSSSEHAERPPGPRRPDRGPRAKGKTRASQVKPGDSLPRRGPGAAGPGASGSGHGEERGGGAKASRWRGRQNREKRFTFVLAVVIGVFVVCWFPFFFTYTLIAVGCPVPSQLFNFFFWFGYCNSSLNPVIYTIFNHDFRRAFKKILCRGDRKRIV
Protocol: α2 -agonism was determined by means of isolated, electrically stimulated mouse was deferens preparation (Marshall et al., Br. J. Pharmac. 62, 147-151, 1978). […] Results are shown in Table 1, where the α2 -agonist effect is presented as the pD2 -value (negative logarith of the molar concentration of the compound producing 50 percent of maximal inhibition.)

α1 -receptors = experiment: 3H-prazosin displacement, receptor binding in rat brain membranes
Text: (§1) The selectivity of the d-enantiomer as an α2 -agonist was studied in receptor binding experiments using rat brain membranes. […] 108, 163-9, 1985.

mice [3] = experiment: Spontaneous motility (Animex-activity meter); assay type: in vivo; conditions: Mus musculus, sc, 0.5 h; s.c.; 30 minutes before two-minute measuring period; read-out: ED50 in reducing spontaneous motility in mice
mice [4] = experiment: Acetic acid-induced writhing test; assay type: in vivo; conditions: Mus musculus, sc, 45 min before 1% acetic acid i.p.; writhes counted 25 min
Protocol: The sedative-analgesic properties of the compounds were studied in the spontaneous motility and writhing-test in the mouse. Spontaneous motility of mice and rats was measured using the Animex-activity meter. The test compounds were administered i.p. 30 minutes before the measuring periods of two minutes. In the writhing test the compounds studied and saline were administered s.c. to […], and 45 min. later 1 ml of 1% acetic acid was administered i.p. The number of writhes was recorded in the following 25 min. period (Koster et al., Fred. Proc. 18: 412, 1959).

α2 -receptors [5] = target: T2, α2 -receptors (Rattus norvegicus, UniProt P22909); experiment: biochemical; assay type: binding
T2 construct: from tissue; host or cells: rat brain membranes
T2 sequence (P22909 1-465): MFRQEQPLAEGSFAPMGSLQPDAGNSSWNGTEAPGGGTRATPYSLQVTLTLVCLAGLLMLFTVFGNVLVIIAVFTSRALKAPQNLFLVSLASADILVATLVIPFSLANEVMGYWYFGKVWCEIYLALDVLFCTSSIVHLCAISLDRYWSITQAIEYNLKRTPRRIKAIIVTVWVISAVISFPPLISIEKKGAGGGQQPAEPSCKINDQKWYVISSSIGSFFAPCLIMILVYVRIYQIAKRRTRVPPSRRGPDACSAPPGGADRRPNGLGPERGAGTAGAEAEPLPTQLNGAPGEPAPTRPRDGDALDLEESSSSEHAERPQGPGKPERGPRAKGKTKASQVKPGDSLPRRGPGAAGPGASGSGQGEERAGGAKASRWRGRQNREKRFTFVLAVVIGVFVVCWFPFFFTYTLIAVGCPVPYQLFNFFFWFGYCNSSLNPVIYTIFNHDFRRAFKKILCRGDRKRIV
Text: as §1

α2 -receptors [6] = experiment: biochemical; assay type: binding, rat; conditions: ratio of 3H-prazosin IC50 to 3H-clonidine IC50
Text: as §1

rat [7] = conditions: for CSF MHPG-SO4 (% of control): 4 h after adm.
Text: It is well known that anxiety states connected to withdrawal symptoms are due to noradrenergic hyperactivity.

Sprague-Dawley rats = conditions: anesthetized rats; for Decrease in BP / Decrease in heart rate: femoral vein
Protocol: After this, the femoral artery was connected by a polyethylene tube to a blood pressure transducer. The test substance was then injected into the femoral vein and the blood pressure and the pulse frequency were registered with a recorder.

`CN1C(=O)CN=C(c2ccccc2)c2cc(Cl)ccc21` [diazepam, reference compound] was tested, and the “Mean number of entries, closed” value (rat [1]; dose 1 mg/kg) was 10.5, the “Mean number of entries, open” value (rat [1]; dose 1 mg/kg) was 5.2 and the “Mean number of entries, total” value (rat [1]; dose 1 mg/kg) was 15.7. The open/total entries (rat [1]; dose 1 mg/kg) was 0.33.
`Clc1cccc(Cl)c1N=C1NCCN1` [clonidine, reference compound] gave an EC50 [2] of 3.16 nM, an IC50 (α1 -receptors) of 6200 nM and an ED50 (mice [3]) of 0.3 mg/kg. It also gave an ED50 (mice [4]) of 0.03 mg/kg.
`Cc1cccc(Cc2c[nH]cn2)c1C` [detomidine] gave an EC50 [2] of 3.16 nM, an IC50 (α2 -receptors [5]) of 3.7 nM and an ED50 (mice [3]) of 0.3 mg/kg. It also gave an ED50 (mice [4]) of 0.02 mg/kg.
In the case of `Cc1cccc([C@H](C)c2cnc[nH]2)c1C` [d-enantiomer], the EC50 [2] is reported as 0.501 nM, the IC50 (α2 -receptors [5]) is reported as 1.2 nM and the “α2 /α1 -selectivity” value (α2 -receptors [6]) is reported as 45849. For the same molecule, the IC50 (α1 -receptors) was 55000 nM, the ED50 (mice [3]) was 0.02 mg/kg and the ED50 (mice [4]) was 0.01 mg/kg. The “Mean number of entries, closed” value (rat [1]; dose 0.0003 mg/kg) was 10.6, the “Mean number of entries, open” value (rat [1]; dose 0.0003 mg/kg) was 4.8 and the “Mean number of entries, total” value (rat [1]; dose 0.0003 mg/kg) was 14.0. For the same molecule, the open/total entries (rat [1]; dose 0.0003 mg/kg) was 0.20, the “Mean number of entries, closed” value (rat [1]; dose 0.001 mg/kg) was 10.6 and the “Mean number of entries, open” value (rat [1]; dose 0.001 mg/kg) was 3.2. For the same molecule, the “Mean number of entries, total” value (rat [1]; dose 0.001 mg/kg) was 13.8, the open/total entries (rat [1]; dose 0.001 mg/kg) was 0.23 and the “Mean number of entries, closed” value (rat [1]; dose 0.003 mg/kg) was 9.5. The “Mean number of entries, open” value (rat [1]; dose 0.003 mg/kg) was 4.0, the “Mean number of entries, total” value (rat [1]; dose 0.003 mg/kg) was 13.5 and the open/total entries (rat [1]; dose 0.003 mg/kg) was 0.29. For the same molecule, the “Mean number of entries, closed” value (rat [1]; dose 0.01 mg/kg) was 8.8, the “Mean number of entries, open” value (rat [1]; dose 0.01 mg/kg) was 5.8 and the “Mean number of entries, total” value (rat [1]; dose 0.01 mg/kg) was 14.6. The open/total entries (rat [1]; dose 0.01 mg/kg) was 0.39, the “Mean number of entries, closed” value (rat [1]; dose 0.03 mg/kg) was 3.0 and the “Mean number of entries, open” value (rat [1]; dose 0.03 mg/kg) was 2.5. The “Mean number of entries, total” value (rat [1]; dose 0.03 mg/kg) was 5.5, the open/total entries (rat [1]; dose 0.03 mg/kg) was 0.45 and the “anxiolytic effect in the elevated t-maze test (in words)” value (rat [1]; summary of Table 5) was “anxiolytic profile”. For the same molecule, the “effect on noradrenaline release (in words)” value (rat [7]; central and peripheral nervous systems) was “able to reduce noradrenaline release”, the “CSF MHPG-SO4 (% of control)” value (rat [7]; dose 3 μg/kg) was -10 % of control and the “CSF MHPG-SO4 (% of control)” value (rat [7]; dose 10 μg/kg) was -20 % of control. For the same molecule, the “CSF MHPG-SO4 (% of control)” value (rat [7]; dose 30 μg/kg) was -30 % of control, the “CSF MHPG-SO4 (% of control)” value (rat [7]; dose 100 μg/kg) was -65 % of control and the “effect on blood pressure and heart rate (in words)” value (Sprague-Dawley rats; summary of Table 7) was “clear anti-hypertensive and bradycardia effects”. For the same molecule, the “Decrease in BP” value (Sprague-Dawley rats; dose 0.001 mg/kg) was -8%, the “Decrease in heart rate” value (Sprague-Dawley rats; dose 0.001 mg/kg) was -21% and the “Decrease in BP” value (Sprague-Dawley rats; dose 0.003 mg/kg) was -23%. The “Decrease in heart rate” value (Sprague-Dawley rats; dose 0.003 mg/kg) was -40%, the “Decrease in BP” value (Sprague-Dawley rats; dose 0.01 mg/kg) was -43% and the “Decrease in heart rate” value (Sprague-Dawley rats; dose 0.01 mg/kg) was -47%. The “Decrease in BP” value (Sprague-Dawley rats; dose 0.03 mg/kg) was -45%, the “Decrease in heart rate” value (Sprague-Dawley rats; dose 0.03 mg/kg) was -48% and the “Decrease in BP” value (Sprague-Dawley rats; dose 0.1 mg/kg) was -45%. The “Decrease in heart rate” value (Sprague-Dawley rats; dose 0.1 mg/kg) was -50%.
For `Cc1cccc(C(C)c2cnc[nH]2)c1C` (racemic) [medetomidine], the EC50 [2] was 1 nM, the IC50 (α2 -receptors [5]) was 3.3 nM and the “α2 /α1 -selectivity” value (α2 -receptors [6]) was 5060. For the same molecule, the IC50 (α1 -receptors) was 16700 nM, the ED50 (mice [3]) was 0.05 mg/kg and the ED50 (mice [4]) was 0.02 mg/kg.
With `Cc1cccc([C@@H](C)c2cnc[nH]2)c1C` [1-enantiomer] the EC50 [2] was 1000 nM, the “type of agonism (mouse vas deferens)” value ([2]; remark in pD2 cell) was “partial agonist” and the IC50 (α2 -receptors [5]) was 46 nM. For the same molecule, the “α2 /α1 -selectivity” value (α2 -receptors [6]) was 4129, the IC50 (α1 -receptors) was 190000 nM and the ED50 (mice [3]) was greater than 10 mg/kg. For the same molecule, the ED50 (mice [4]) was greater than 10 mg/kg.
